Results published in US4073935A, “Substituted propanol-(2)-derivatives and their nicotinic acid esters, and process for their preparation, and the use thereof as hypolipemic drugs” (Klinge Pharma GmbH & Co., priority 1974, dated 1978).
Read-outs that look alike come from different tables or passages of the source.

Assays:
serum lipids = experiment: Lipid-lowering action in normolipemic rats; type: in vivo; conditions: Rattus norvegicus, 72 h, 4 × 100 mg/kg oral over 3 days, male Wistar rats, vs controls, X ± Sx
Experimental: Lipid-lowering action was tested on groups of 10 male Wistar rats (Ivanovas-Kisslegg), weight 200-220 g, normolipemic, or ordinary ration ("ssniff" complete feed).
The test compounds were taken up in an aqueous solution of 0.25% agar and 0.85% NaCl and administered orally. After administration of 4 × 100 mg/kg over a period of 3 days, the animals were bled by cardiac puncture after privation of […] for 4 hours.^1
^1 H. Enomoto and R. Zschocke, 3rd Int. Symp. Atheroscler, Berlin 1973, Abstr. 238.
Serum lipids were determined with a Technicon autoanalyzer. Total cholesterol (TC) was tested by the Liebermann-Burchard reaction. Quantitative analysis for triglycerides (TG) was performed by Eggstein and Kreutz's enzyme method (Klin. Wschr. 44, 262, 1966), modified for autoanalyzer.
Lipid lowering effect is expressed as percent lowering of total cholesterol and triglycerides compared to controls.

[1] = Oral tolerance (acute toxicity, LD50); conditions: mouse, in vivo, mice, 8th day after treatment, Litchfield-Wilcoxon
Experimental: After oral administration of the test compounds to mice of strain NMR-I, weight 15-20 g, the acute toxicity was determined. LD50 values were calculated following Litchfield-Wilcoxon (J. Pharmak. Exp. Therap. 96, 99, 1949) and pertain to the 8th day after treatment.

[2] = read-out: % Lowering TC (total cholesterol)
[3] = read-out: % Lowering TG (triglycerides)

Row | SMILES | inhibition in vivo at 100 mg/kg (serum lipids; [2]) | inhibition in vivo at 100 mg/kg (serum lipids; [3]) | LD50 at 192 h [1]
1 | O=C(OCc1cccnc1)c1ccc(OCC(O)COc2ccc(Cl)cc2)cc1 (stereo not drawn) [Compound 85, 3-(4'-pyridyl-(3)-methoxycarbonylphenoxy)-1-(4'-chlorophenoxy)-propanol-(2)] | 52 ± 8.6% | 81.4 ± 5.9% | 
2 | COC(=O)c1ccc(OCC(COc2ccc(Cl)cc2)OC(=O)c2cccnc2)cc1 (stereo not drawn) [Compound 95, 3-(4'-methoxycarbonylphenoxy)-1-(4'-chlorophenoxy)-propanol-(2) nicotinic acid ester] | 38.3 ± 15.4% | 63.8 ± 14.8% | 
3 | CC(C)OC(=O)c1ccc(OCC(COc2ccc(Cl)cc2)OC(=O)c2cccnc2)cc1 (stereo not drawn) [Compound 96] | 36.8 ± 14.3% | 74 ± 4.8% | 
4 | COC(=O)c1ccc(OCC(CSc2ccc(Cl)cc2)OC(=O)c2cccnc2)cc1 (stereo not drawn) [Compound 104] | 48 ± 7.9% | 81.1 ± 5.6% | 
5 | O=C(NO)c1ccc(OCC(O)COc2ccc(Cl)cc2)cc1 (stereo not drawn) [Compound 105] | 29.8 ± 14.3% | 53.2 ± 11.2% | 
6 | O=C(C=Cc1ccc(OCC(O)COc2ccc(Cl)cc2)cc1)NO (stereo not drawn) [Compound 106, 3-(4'-(2-(n-hydroxycarbamoyl)-vinyl)-phenoxy)-1-(4'-chlorophenoxy)-propanol-(2)] | 43.9 ± 19.4% | 64.2 ± 17.1% | 
7 | O=C(CCc1ccc(OCC(O)COc2ccc(Cl)cc2)cc1)NO (stereo not drawn) [Compound 107] | 49.6 ± 13.3% | 84.8 ± 4.1% | 
8 | CC(C)(C)c1ccc(OCC(O)COc2ccc(C(=O)NO)cc2)cc1 (stereo not drawn) [Compound 108] | 51.1 ± 8.3% | 77.8 ± 3.3% | 
9 | CCOC(OCC)c1ccc(OCC(O)COc2ccc(Cl)cc2)cc1 (stereo not drawn) [Compound 110] | 32.1 ± 15.8% | 68 ± 6.5% | 
10 | COC(OC)c1ccc(OCC(O)COc2ccc(C(C)(C)C)cc2)cc1 (stereo not drawn) [Compound 113] | 44.4 ± 11.2% | 84 ± 8.8% | 
11 | CC(C)(C)c1ccc(OCC(O)COc2ccc(C3OCCO3)cc2)cc1 (stereo not drawn) [Compound 114] | 67.9 ± 6.6% | 91.6 ± 4.8% | 
12 | COC(OC)c1ccc(OCC(O)CSc2ccc(Cl)cc2)cc1 (stereo not drawn) [Compound 116] | 43.2 ± 9.8% | 74 ± 9.8% | 
13 | CCOC(=O)C(C)(C)Oc1ccc(Cl)cc1 [clofibrate, 2-(4'-chlorophenoxy)-2-methylpropionic acid ethyl ester, reference compound] | 37.4 ± 13.6% | 50.4 ± 20% | 1900 mg/kg
